The subject of assay [1] is NHDF cells. The assay can be described thus: MTS cytotoxicity assay, normal fibroblasts NHDF. Type of assay: cell-based. Particulars: NHDF normal human fibroblasts, 72 h incubation. From the text:
(§1) M. Rusin from the Maria Sklodowska-Curie Memorial Cancer Centre and Institute of Oncology in Gliwice, Poland. […] G. Kramer-Marek from the Institute of Cancer Research in London, United Kingdom. The human suspension chronic myelogenous leukemia cell line K562 and pancreas ductal adenocarcinoma cell line PANC-1 were purchased from Sigma-Aldrich (St. Louis, MO, USA), while the normal human dermal fibroblasts cell line NHDF were purchased from PromoCell. […] Each medium contained a combination of two antibiotics: penicillin and streptomycin (1% v/v; Gibco). All of these cell lines were grown under standard conditions at 37 °C with a 5% CO2 humidified atmosphere. Moreover, all of the cell lines were routinely tested for mycoplasma using the PCR technique with specific Mycoplasma primers to confirm that there was no contamination.
(§2) The assay was performed following a 72 h incubation with the various concentrations of the tested compounds. Then, 100 µL DMEM without phenol red with 20 µL of the CellTiter 96®AQueous One Solution-MTS (Promega, Promega, WI, USA) was added to each well and incubated for 1 h or 3 h (PANC-1) at 37 °C. The optical densities of the samples were measured at 490 nm using a multi-plate reader (Synergy 4, BioTek, Winooski, VT, USA). […] Each individual compound was tested in triplicate in a single experiment with each experiment being performed three or four times.

The test system of assay [2] is MCF-7 cells. Kind of assay: MTS cytotoxicity assay, MCF-7. Type of assay: cell-based, human. The following applies: for IC50: Homo sapiens, MCF7, MCF-7, 72 h incubation, MTS; for Selectivity index, MCF-7: NHDF vs MCF-7.
Text: as §1, §2

In assay [3] the target is T1, Lyn B (Homo sapiens, UniProt P07948).
T1 construct: purchased Promega
T1 sequence (P07948 1-491 isoform P07948-2): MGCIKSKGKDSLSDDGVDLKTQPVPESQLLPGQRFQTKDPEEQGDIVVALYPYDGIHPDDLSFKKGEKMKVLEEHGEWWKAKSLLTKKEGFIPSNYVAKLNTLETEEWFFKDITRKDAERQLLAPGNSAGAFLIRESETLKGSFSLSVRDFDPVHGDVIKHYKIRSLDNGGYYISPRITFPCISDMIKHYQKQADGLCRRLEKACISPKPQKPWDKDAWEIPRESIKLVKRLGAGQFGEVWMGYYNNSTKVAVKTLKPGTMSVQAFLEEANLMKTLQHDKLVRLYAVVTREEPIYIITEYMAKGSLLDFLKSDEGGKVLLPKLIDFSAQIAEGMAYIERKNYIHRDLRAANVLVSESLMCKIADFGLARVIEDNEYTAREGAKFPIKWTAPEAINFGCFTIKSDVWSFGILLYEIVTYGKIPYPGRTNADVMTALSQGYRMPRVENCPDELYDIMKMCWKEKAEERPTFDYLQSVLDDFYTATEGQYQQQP
Kind of assay: Tyrosine kinase assay (Kinase Selectivity TK-2, ADP-Glo). Format: biochemical. Particulars: read-out: Inhibitory Effect of the Tyrosine Kinase Activity, Lyn B. The protocol:
(§3) Assays using the Kinase Selectivity TK-2 profiling systems and ADP-Glo Kinase Assay (both from Promega) were performed to determine the inhibition of the non-receptor tyrosine kinases. The protocol was previously designed and described by our group in reports. The experiments were performed at least four times. The data are expressed as the percentage of the inhibition activity of tyrosine kinase after treatment with the tested derivatives.

The target in assay [4] is T2, BRK (Homo sapiens, UniProt Q13882).
T2 construct: purchased Promega
T2 sequence (Q13882 whole entry): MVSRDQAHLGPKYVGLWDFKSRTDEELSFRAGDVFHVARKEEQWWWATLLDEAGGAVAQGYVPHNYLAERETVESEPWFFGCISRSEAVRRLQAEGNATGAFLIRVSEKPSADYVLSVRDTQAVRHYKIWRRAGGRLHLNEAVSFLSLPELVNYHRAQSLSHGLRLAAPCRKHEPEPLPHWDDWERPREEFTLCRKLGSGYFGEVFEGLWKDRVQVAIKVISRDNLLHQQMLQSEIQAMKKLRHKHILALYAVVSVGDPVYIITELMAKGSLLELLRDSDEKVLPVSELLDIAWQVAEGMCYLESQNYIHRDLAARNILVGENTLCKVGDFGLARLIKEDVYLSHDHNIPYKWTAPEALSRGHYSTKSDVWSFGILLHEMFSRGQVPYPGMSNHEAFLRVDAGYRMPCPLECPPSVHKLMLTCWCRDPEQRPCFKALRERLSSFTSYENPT
Described as above. Format: biochemical. The following applies: read-out: Inhibitory Effect of the Tyrosine Kinase Activity, BRK. The protocol: as §3

The target of assay [5] is T3, CSK (Homo sapiens, UniProt P41240).
T3 construct: purchased Promega
T3 sequence (P41240 whole entry): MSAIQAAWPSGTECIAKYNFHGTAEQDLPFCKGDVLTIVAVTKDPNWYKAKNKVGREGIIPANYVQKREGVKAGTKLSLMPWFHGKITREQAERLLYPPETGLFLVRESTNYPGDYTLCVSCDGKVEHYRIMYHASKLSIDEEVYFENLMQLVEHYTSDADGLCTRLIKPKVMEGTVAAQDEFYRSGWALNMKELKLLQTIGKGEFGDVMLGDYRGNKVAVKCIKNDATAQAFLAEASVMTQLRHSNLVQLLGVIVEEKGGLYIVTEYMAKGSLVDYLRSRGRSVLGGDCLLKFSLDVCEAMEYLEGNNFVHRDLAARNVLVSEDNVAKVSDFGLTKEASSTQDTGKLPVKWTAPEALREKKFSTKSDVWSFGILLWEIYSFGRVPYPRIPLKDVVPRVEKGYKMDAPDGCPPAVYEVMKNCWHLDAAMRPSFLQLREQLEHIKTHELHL
The assay is described as above. Format: biochemical. Particulars: read-out: Inhibitory Effect of the Tyrosine Kinase Activity, CSK. As for the experimental part:
as §3

The target of assay [6] is T4, BTK (Homo sapiens, UniProt Q06187).
T4 construct: purchased Promega
T4 sequence (Q06187 whole entry): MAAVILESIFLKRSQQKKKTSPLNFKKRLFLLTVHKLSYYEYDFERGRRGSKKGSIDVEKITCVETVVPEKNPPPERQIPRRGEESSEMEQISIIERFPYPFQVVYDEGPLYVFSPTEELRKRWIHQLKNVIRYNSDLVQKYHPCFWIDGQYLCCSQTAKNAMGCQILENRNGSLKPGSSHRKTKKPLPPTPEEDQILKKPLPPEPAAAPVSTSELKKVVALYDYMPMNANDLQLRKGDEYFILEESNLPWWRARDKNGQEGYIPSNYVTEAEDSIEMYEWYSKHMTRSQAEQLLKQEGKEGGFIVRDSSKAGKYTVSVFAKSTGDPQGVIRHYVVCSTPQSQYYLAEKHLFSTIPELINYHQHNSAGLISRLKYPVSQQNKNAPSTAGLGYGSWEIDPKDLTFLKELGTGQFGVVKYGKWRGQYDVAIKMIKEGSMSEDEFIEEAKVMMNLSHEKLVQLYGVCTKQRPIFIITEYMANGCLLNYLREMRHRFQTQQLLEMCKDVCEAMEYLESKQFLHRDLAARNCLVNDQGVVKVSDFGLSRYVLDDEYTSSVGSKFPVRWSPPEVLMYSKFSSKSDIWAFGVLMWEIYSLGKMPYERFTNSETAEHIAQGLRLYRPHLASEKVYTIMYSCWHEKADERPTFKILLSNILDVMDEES
The description is as above. Format: biochemical. The following applies: read-out: Inhibitory Effect of the Tyrosine Kinase Activity, BTK. The protocol:
as §3

Assay [7] concerns the target T5, Src (Homo sapiens, UniProt P12931).
T5 construct: purchased Promega
Described as above. Format: biochemical. The following applies: read-out: Inhibitory Effect of the Tyrosine Kinase Activity, Src. The protocol: as §3

In assay [8] the target is T6, Fyn A (Homo sapiens, UniProt P06241).
T6 construct: purchased Promega
T6 sequence (P06241 whole entry): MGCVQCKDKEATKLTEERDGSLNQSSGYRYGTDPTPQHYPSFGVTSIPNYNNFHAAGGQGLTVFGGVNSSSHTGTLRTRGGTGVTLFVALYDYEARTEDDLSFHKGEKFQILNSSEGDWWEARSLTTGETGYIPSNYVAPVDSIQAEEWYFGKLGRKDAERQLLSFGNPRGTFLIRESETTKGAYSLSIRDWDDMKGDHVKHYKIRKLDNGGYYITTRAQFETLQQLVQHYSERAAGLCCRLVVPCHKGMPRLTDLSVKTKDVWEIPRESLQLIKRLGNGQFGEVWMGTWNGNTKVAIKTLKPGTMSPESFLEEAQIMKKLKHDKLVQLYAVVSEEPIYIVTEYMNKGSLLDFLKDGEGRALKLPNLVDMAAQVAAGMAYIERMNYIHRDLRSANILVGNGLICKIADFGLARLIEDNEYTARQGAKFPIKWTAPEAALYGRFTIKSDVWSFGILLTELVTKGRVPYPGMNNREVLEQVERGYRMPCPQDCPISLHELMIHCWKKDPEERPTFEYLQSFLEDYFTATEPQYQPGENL
The description is as above. Format: biochemical. The following applies: read-out: Inhibitory Effect of the Tyrosine Kinase Activity, Fyn A. As for the experimental part: as §3

The target of assay [9] is T7, Lck (Homo sapiens, UniProt P06239).
T7 construct: purchased Promega
T7 sequence (P06239 whole entry): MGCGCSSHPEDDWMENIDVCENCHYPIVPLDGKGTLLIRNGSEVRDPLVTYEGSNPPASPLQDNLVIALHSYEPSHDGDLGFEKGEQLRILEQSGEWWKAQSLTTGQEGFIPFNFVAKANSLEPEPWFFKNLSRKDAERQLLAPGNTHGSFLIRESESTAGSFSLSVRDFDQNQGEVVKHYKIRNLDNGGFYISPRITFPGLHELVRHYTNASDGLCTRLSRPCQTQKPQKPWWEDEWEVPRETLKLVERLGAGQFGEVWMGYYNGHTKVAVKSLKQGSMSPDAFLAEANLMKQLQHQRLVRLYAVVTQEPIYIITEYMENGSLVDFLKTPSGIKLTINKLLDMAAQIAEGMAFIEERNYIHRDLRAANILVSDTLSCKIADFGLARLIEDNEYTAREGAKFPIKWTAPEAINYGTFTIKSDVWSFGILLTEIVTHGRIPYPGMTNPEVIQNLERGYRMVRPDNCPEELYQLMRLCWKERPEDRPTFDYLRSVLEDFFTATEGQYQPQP
Described as above. Format: biochemical. Particulars: read-out: Inhibitory Effect of the Tyrosine Kinase Activity, Lck. As for the experimental part: as §3

In assay [10] the target is T8, ABL1 (Homo sapiens, UniProt P00519).
T8 construct: purchased Promega
T8 sequence (P00519 whole entry): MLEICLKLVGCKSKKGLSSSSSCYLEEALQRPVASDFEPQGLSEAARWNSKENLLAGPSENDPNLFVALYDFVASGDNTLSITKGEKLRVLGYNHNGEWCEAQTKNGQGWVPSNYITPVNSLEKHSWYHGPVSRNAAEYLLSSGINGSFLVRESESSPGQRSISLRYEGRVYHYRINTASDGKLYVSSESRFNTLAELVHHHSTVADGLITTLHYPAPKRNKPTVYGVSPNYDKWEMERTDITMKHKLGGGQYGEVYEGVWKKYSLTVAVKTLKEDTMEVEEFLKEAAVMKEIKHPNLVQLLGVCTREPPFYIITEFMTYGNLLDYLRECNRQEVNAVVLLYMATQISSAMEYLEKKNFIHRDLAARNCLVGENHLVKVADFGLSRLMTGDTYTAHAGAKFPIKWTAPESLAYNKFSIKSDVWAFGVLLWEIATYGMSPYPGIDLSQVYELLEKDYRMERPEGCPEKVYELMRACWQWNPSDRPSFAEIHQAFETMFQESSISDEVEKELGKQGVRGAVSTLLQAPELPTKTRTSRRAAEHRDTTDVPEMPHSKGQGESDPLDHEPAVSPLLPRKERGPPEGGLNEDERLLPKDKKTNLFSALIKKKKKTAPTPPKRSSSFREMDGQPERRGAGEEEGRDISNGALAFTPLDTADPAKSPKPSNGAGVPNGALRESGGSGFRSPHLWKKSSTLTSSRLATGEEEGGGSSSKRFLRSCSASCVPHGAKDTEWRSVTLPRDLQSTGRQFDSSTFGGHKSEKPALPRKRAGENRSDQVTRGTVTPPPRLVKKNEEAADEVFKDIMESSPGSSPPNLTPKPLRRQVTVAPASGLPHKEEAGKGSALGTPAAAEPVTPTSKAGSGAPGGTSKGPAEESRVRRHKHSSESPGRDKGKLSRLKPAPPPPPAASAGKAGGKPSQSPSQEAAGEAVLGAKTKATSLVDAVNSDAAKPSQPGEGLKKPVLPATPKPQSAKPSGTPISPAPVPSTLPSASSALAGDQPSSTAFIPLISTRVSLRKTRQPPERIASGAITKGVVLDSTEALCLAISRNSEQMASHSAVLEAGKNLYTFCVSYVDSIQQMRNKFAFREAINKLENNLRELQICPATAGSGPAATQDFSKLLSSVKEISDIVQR
Described as above. Type of assay: biochemical. Particulars: read-out: Inhibitory Effect of the Tyrosine Kinase Activity, ABL1. As for the experimental part: as §3

In assay [11] the test system is PANC-1 cells. Kind of assay: MTS cytotoxicity assay, PANC-1. Format: cell-based, human. Particulars: for IC50: Homo sapiens, PANC-1, 72 h incubation, MTS.
Text: as §1, §2

In assay [12] the test system is K562 cells. Kind of assay: MTS cytotoxicity assay, K562. Particulars: for IC50: Homo sapiens, K562, 72 h incubation, MTS; for Selectivity index, K562: normal fibroblasts NHDF vs K562. Type of assay: cell-based, human.
Text: as §1, §2
For orientation: Formazan colour is commonly taken as a measure of viable cells.

The test system of assay [13] is HCT 116 p53^+/+ cells. Kind of assay: MTS cytotoxicity assay, HCT 116 p53+/+. Format: cell-based, human. The following applies: for IC50: Homo sapiens, HCT 116 p53^+/+, 72 h incubation, MTS.
Text: as §1, §2

Assay [14] relates to HCT 116 p53^−/− cells. The assay can be described thus: MTS cytotoxicity assay, HCT 116 p53-/-. Format: cell-based, human. The following applies: for IC50: Homo sapiens, HCT 116 p53^−/−, 72 h incubation, MTS; for Selectivity index, HCT 116 p53 −/−: NHDF vs HCT 116 p53 −/−.
Text: as §1, §2

The test system of assay [15] is A549 cells. The assay can be described thus: MTS cytotoxicity assay, A549. Type of assay: cell-based, human. The following applies: for IC50: A549, 72 h incubation, MTS; for Selectivity index, A549: NHDF vs A549.
Text: as §1, §2

Assay [16] deals with U-251 cells. The assay can be described thus: MTS cytotoxicity assay, U-251. Format: cell-based, human. Particulars: for IC50: Homo sapiens, U-251, 72 h incubation, MTS.
Text: as §1, §2

The subject of assay [17] is A549 cells. Also noted: method as in PMID 24530495. Particulars: cited from earlier work.
Assay [18] relates to U-251 cells. The assay can be described thus: Cell cycle assay (Muse Cell-Cycle Kit), U-251. Type of assay: cell-based, human. The following applies: U-251, 0.13 µM to 2 µM, 24 h; 32.3% in untreated cells. As for the experimental part:
The K562, U-251 and NHDF cells were seeded in 3 cm Petri dishes (Nunc) at a density of 250,000 cells per well and incubated under standard conditions at 37 °C for 24 h. […] After a 24 h treatment, the assays were performed using a Muse Cell-Cycle Kit (Millipore, Burlington, MA, USA) according to the supplier’s instructions. Briefly, the cells were collected, washed with cold PBS and centrifuged at 300 g for 5 min. Afterwards, the cells were fixed in ice cold 70% ethanol and stored at −20 °C overnight. The next day, the cells were washed with cold PBS, centrifuged and resuspended in 200 μL of the Muse™ Cell Cycle Reagent. The samples were incubated for 30 min at room temperature in the dark. After staining, the cellular subpopulation values in the individual cell cycle phases were estimated using a cell cycle analysis using a Muse Cell Analyzer (Millipore). The experiments were performed at least four times.

Results on 6 compounds are retold here after article PMC8068801, “Novel Benzenesulfonate Scaffolds with a High Anticancer Activity and G2/M Cell Cycle Arrest” (Cancers, 2021).

Like-named read-outs stand apart in the source and are kept apart here.

T5 sequence (P12931 whole entry): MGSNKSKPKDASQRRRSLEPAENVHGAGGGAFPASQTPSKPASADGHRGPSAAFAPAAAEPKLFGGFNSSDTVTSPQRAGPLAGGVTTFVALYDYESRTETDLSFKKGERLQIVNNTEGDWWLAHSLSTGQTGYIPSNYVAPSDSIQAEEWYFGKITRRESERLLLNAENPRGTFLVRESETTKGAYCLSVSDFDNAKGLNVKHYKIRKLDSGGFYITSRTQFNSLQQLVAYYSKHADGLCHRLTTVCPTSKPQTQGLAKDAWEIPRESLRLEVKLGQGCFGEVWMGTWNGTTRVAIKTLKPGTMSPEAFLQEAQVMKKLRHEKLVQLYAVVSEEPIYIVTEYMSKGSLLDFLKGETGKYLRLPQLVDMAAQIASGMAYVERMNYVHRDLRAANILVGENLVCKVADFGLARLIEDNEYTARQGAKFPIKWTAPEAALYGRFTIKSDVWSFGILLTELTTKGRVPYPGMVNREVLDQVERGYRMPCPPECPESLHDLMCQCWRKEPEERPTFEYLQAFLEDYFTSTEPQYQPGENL

As for `COc1ccccc1/C=C/c1nc(OS(=O)(=O)c2ccc(C)cc2)c2ccc(Cl)cc2n1` [BS3, 7-chloro-2-((E)-2-(2-methoxyphenyl)ethenyl)quinazolin-4-yl 4-methylbenzenesulfonate], the IC50 – broadly, the concentration needed to halve the response being measured – is 9.42 ± 1.65 µM in [1]; 4.6 ± 1.02 µM in [2]; 0.097 ± 0.03 µM in assay [11]; 0.078 ± 0.027 µM in [12]; 0.363 ± 0.028 µM in assay [13]; 0.239 ± 0.03 µM in assay [14]. For the same compound, the IC50 in [15] came to 7.65 ± 0.987 µM; in assay [15] (Homo sapiens, A549, 72 h) it was 7.65 µM; in [16], 1.76 ± 0.388 µM. Besides, the “Selectivity index, MCF-7” value in assay [2] came to 2.05. Besides, the inhibition at 0.5 µM in assay [3] turned out to be 0%; in [4], 26.5%; in assay [5] it was 0%; in assay [6], 30.7%; in [7] it was 2.73%; in assay [8], 34.1%. Further, the inhibition at 0.5 µM in [9] turned out to be 42.6%; in [10], 0%. For the same compound, the “Selectivity index, PANC-1” value in [11] (NHDF vs PANC-1) was found to be 97.06. Further, the “Selectivity index, K562” value in assay [12] was 120.71. In addition, the “Selectivity index, HCT 116 p53+/+” value in assay [13] (NHDF vs HCT 116 p53+/+) is 25.94. The “Selectivity index, HCT 116 p53 −/−” value in assay [14] stood at 39.39. Also, the “Selectivity index, A549” value in assay [15] is on record as 1.23. Besides, the “Selectivity index, U-251” value in assay [16] (NHDF vs U-251) came to 5.36.

For `COc1ccc(/C=C/c2nc(OS(=O)(=O)c3ccc(C)cc3)c3ccccc3n2)cc1` [BS5, 2-((E)-2-(4-methoxyphenyl)ethenyl)quinazolin-4-yl 4-methylbenzenesulfonate], the IC50 in [1] is more than 25 µM; in assay [2] it was more than 25 µM; in assay [11], more than 25 µM; in assay [12], 10.2 ± 0.819 µM; in assay [13] it was more than 25 µM; in assay [14], more than 25 µM. Further, the IC50 in [15] (Homo sapiens, A549, 72 h) is more than 25 µM; in assay [16], more than 25 µM. Moreover, the inhibition at 0.5 µM in assay [3] is 0%; in assay [4] it was 20.2%; in [5], 20.1%; in assay [6] it was 8.59%; in [7] it was 0%; in assay [8], 0%. In addition, the inhibition at 0.5 µM amounted to 11.2% in assay [9] and 0% in [10]. In addition, the “Selectivity index, K562” value in assay [12] amounted to 2.45. Further, the “Selectivity index, A549” value in assay [15] was 1.00.

On to `COc1ccc(/C=C/c2nc(OS(=O)(=O)c3ccc(C)cc3)c3ccccc3n2)c(OC)c1` [BS6, 2-((E)-2-(2,4-dimethoxyphenyl)ethenyl)quinazolin-4-yl 4-methylbenzenesulfonate], for which the IC50 in assay [1] was more than 25 µM; in assay [2], 9.79 ± 1.23 µM; in assay [11], more than 25 µM; in [12] it was 2.7 ± 0.519 µM; in [13] it was more than 25 µM; in assay [14], 21.7 ± 1.19 µM. The IC50 in [15] (Homo sapiens, A549, 72 h) was more than 25 µM; in assay [16], more than 25 µM. Also, the “Selectivity index, MCF-7” value in [2] was 2.55. Besides, the inhibition at 0.5 µM in [3] came out at 0%; in assay [4] it was 0%; in assay [5] it was 21.1%; in assay [6] it was 17.9%; in [7], 0%; in [8] it was 62.6%. Moreover, the inhibition at 0.5 µM in assay [9] turned out to be 37.3%; in assay [10], 0%. For the same compound, the “Selectivity index, K562” value in assay [12] was found to be 9.26. For the same compound, the “Selectivity index, HCT 116 p53 −/−” value in [14] turned out to be 1.15. In assay [15], the “Selectivity index, A549” value came out at 1.00.

For the compound `COc1ccc(/C=C/c2nc(NCCCN(C)C)c3ccccc3n2)cc1` [CP-31398, reference compound], the half-inhibitory concentration (IC50) in assay [1] was 12.3 ± 0.54 µM; in [2], 27 ± 2.1 µM; in assay [11] it was more than 25 µM; in [12], 3.09 ± 0.36 µM; in assay [13], 18.6 ± 0.92 µM; in [14], 26.3 ± 1.41 µM. Moreover, the IC50 in assay [15] (Homo sapiens) is more than 25 µM; in assay [16] it was 18.8 ± 1.65 µM.

Regarding `COc1c(NS(=O)(=O)c2ccc(C)cc2)cc(-c2ccc3ncnc(N4CCOCC4)c3c2)cc1C(N)=O` [IV], the 50% inhibitory concentration (IC50) in assay [17] was 2.18 µM.

Turning to `CC(=O)O[C@H]1C(=O)[C@@]2(C)[C@H]([C@H](OC(=O)c3ccccc3)[C@]3(O)C[C@H](OC(=O)[C@H](O)[C@@H](NC(=O)c4ccccc4)c4ccccc4)C(C)=C1C3(C)C)[C@]1(OC(C)=O)CO[C@@H]1C[C@@H]2O` [paclitaxel, reference compound], the “Fraction of cells in the G2/M phase” value in assay [18] was “about 69.9%”.
